Earlier results, collected in patent US9145409B2, “Benzhydryl derivatives” (CHIESI FARMACEUTICI S.p.A., priority 2013, dated 2015).

Columns and labels:
[1] = system: smoking model of COPD in mice
[2] = COPD patients, oral, given over 4 weeks
[3] = clinical trials, 500 mg once daily given over 12 months
[4] = patients with severe disease, frequent exacerbations and mucus hypersecretion

Question: With `O=C(Nc1c(Cl)cncc1Cl)c1ccc(OC(F)F)c(OCC2CC2)c1` [roflumilast] as the compound, how does the “lung inflammation and emphysema” value [1] read?
Answer: The value was “inhibits lung inflammation and emphysema”.

Question: What about the “CXCL8 concentrations in sputum” value (COPD patients; [2]) of the same compound?
Answer: Its value is “significantly reduces”.

Question: And the “reduction of the numbers of neutrophils in sputum” value (COPD patients; [2])?
Answer: The value was 36%.

Question: And the “clinical benefit as add-on” value (COPD patients; added to salmeterol or tiotropium)?
Answer: Its value is “provides clinical benefit”.

Question: What about the “exacerbations and quality of life” value (COPD patients; [3]) of the same compound?
Answer: Its value is “little effect in reducing exacerbations or improving quality of life”.

Question: And the lung function (COPD patients; [3])?
Answer: Its lung function is “improved lung function in COPD patients to a small extent”.

Question: What about the “improvement of FEV 1” value (COPD patients; [4]) of the same compound?
Answer: Its value is “approximately 50 mL”.

Question: What about the reduction of exacerbation (COPD patients; [4]) of the same compound?
Answer: Its reduction of exacerbation is “about 15%”.
